Measured values published in the supplement of paper PMC11208160.

Test: recombinant barcode read abundance after kanamycin selection (control-corrected) (log10(CPM+1)); higher = more efficient recombination; sequences stand for … in AGTGCAGAGAAAATCGGCCAGTTTTCTCTGCCTGCAGTCCGCATGCCGT…AGATTTATGCAGCGGACTGCCTTTCTCCCAAAGTGATAAACCGGACAGTATCATGGACCGGTTTTCCCGGTAATCCGTATTTGCAAGGTTGGTTTCACT; site = the 11-nt target
How it was run: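 Oligos holding a promoter, target, barcode and the J23119-driven first 104 bases of the bridge RNA were Gibson-cloned into a vector that supplied the other 73 bp plus a T7-inducible recombinase. This library was co-electroporated with a donor plasmid into E. coli. Two replicates went on chloramphenicol/ampicillin LB agar (control) and two on chloramphenicol/ampicillin/kanamycin with 0.1 mM IPTG. Recombination efficiency is read from averaged, control-corrected barcode counts per million at recombinant junctions, reported as log10(CPM+1).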
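Note: IS621 recombinase and bridge RNA in Escherichia coli cells.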

Row | Sequence | recombinant barcode read abundance (log10)
1 | TATGCTTCTTGGGTTCTAACCTGTTGCTT (site TATGCTTCTAA) | 0.0973
2 | TATGCTTCTTGGGTTCTAACCTGTTGCTT (site TATGGTTCTAG) | 0.0104
3 | TATGGGTCTTGGGTTCTAACCTGTTGCCT (site TATGGGTCTAG) | 1.04
4 | TATGGGTCTTGGGTTCTAACCTGTTGCCT (site TGTGGGTCTAG) | 0.209
5 | TATGTAGCTTGGGTTCTAACCTGTTGCCG (site TATGTAGCTAG) | 0.486
6 | TATGTAGCTTGGGTTCTAACCTGTTGCCG (site TATGTAGCTCG) | 1.04
7 | TATGTAGCTTGGGTTCTAACCTGTTGCCG (site TATGTAGCTGG) | 0.107
8 | TATGTAGCTTGGGTTCTAACCTGTTGCCG (site TATGTAGCTTG) | 0.0858
9 | TATGTAGCTTGGGTTCTAACCTGTTGCCT (site TATGTAGCTAG) | 0.677
10 | TATGTAGCTTGGGTTCTAACCTGTTGCCT (site TATGTAGCTCG) | 0.353
11 | TATGTAGCTTGGGTTCTAACCTGTTGCCT (site TATGTAGCTGG) | 0.103
12 | TATGTAGCTTGGGTTCTAACCTGTTGCCT (site TATGTAGCTTG) | 0.129
13 | TATTAACCTTGGGTTCTAACCTGTTGCCT (site TATTAACCTAG) | 0.329
14 | TATTAACCTTGGGTTCTAACCTGTTGCCT (site TATTACCCTAG) | 0.117
15 | TATTAACCTTGGGTTCTAACCTGTTGCCT (site TATTAGCCTAG) | 0.0897
16 | TATTAACCTTGGGTTCTAACCTGTTGCCT (site TATTATCCTAG) | 0.0539
17 | TATTAGCCTTGGGTTCTAACCTGTTGCCT (site TATTAACCTAG) | 0.138
18 | TATTAGCCTTGGGTTCTAACCTGTTGCCT (site TATTACCCTAG) | 0.283
19 | TATTAGCCTTGGGTTCTAACCTGTTGCCT (site TATTAGCCTAG) | 0.123
20 | TATTAGCCTTGGGTTCTAACCTGTTGCCT (site TATTATCCTAG) | 0.27
21 | TATTATCCTTGGGTTCTAACCTGTTGCCT (site TATTAACCTAG) | 0.341
22 | TATTATCCTTGGGTTCTAACCTGTTGCCT (site TATTACCCTAG) | 0.0929

Row | Sequence | recombinant barcode read abundance (log10)
23 | TATTATCCTTGGGTTCTAACCTGTTGCCT (site TATTAGCCTAG) | 0.121
24 | TATTATCCTTGGGTTCTAACCTGTTGCCT (site TATTATCCTAG) | 0.0487
25 | TATTCTACTTGGGTTCTAACCTGTTGCGA (site TATTCTACTAC) | 0.0359
26 | TATTCTACTTGGGTTCTAACCTGTTGCGA (site TATTCTACTCC) | 0.0347
27 | TATTCTACTTGGGTTCTAACCTGTTGCGA (site TATTCTACTGC) | 0.165
28 | TATTCTACTTGGGTTCTAACCTGTTGCGA (site TATTCTACTTC) | 0.0707
29 | TATTCTCCTTGGGTTCTAACCTGTTGCAT (site TATTCTCCTAA) | 0.0409
30 | TATTCTCCTTGGGTTCTAACCTGTTGCAT (site TATTCTCCTAC) | 0.235
31 | TATTCTCCTTGGGTTCTAACCTGTTGCAT (site TATTCTCCTAG) | 0.00827
32 | TATTCTCCTTGGGTTCTAACCTGTTGCAT (site TATTCTCCTAT) | 0.186
33 | TATTGGACTTGGGTTCTAACCTGTTGCAA (site TATTGGACTAT) | 0.218
34 | TATTGGACTTGGGTTCTAACCTGTTGCAA (site TATTGGACTCT) | 0.017
35 | TATTGGACTTGGGTTCTAACCTGTTGCAA (site TATTGGACTGT) | 0.0217
36 | TATTGGACTTGGGTTCTAACCTGTTGCAA (site TATTGGACTTT) | 0.303
37 | TATTGTCCTTGGGTTCTAACCTGTTGCCT (site TATAGTACTAG) | 0.0216
38 | TATTGTCCTTGGGTTCTAACCTGTTGCCT (site TATTGTCCTAG) | 0.124
39 | TATTTGTCTTGGGTTCTAACCTGTTGCTA (site TAGTCGTCTTA) | 0.148
40 | TATTTGTCTTGGGTTCTAACCTGTTGCTA (site TATTTGTCTTA) | 0.486
41 | TCAAAGGCTTGGGTTCTAACCTGTTGCCT (site TCAAAGGCTAG) | 0.0805
42 | TCAAAGGCTTGGGTTCTAACCTGTTGCCT (site TCCAAGGCTAG) | 0.238
43 | TCAAAGGCTTGGGTTCTAACCTGTTGCCT (site TCGAAGGCTAG) | 0.13
44 | TCAAAGGCTTGGGTTCTAACCTGTTGCCT (site TCTAAGGCTAG) | 0.0999

Row | Sequence | recombinant barcode read abundance (log10)
45 | TCAAATTCTTGGGTTCTAACCTGTTGCCT (site TCAAATTCTAG) | 0.0401
46 | TCAAATTCTTGGGTTCTAACCTGTTGCCT (site TCACATTCTAG) | 0.0721
47 | TCAAATTCTTGGGTTCTAACCTGTTGCCT (site TCAGATTCTAG) | 0.108
48 | TCAAATTCTTGGGTTCTAACCTGTTGCCT (site TCATATTCTAG) | 0.0151
49 | TCACAGACTTGGGTTCTAACCTGTTGCCG (site GTTAGCCCTAT) | 0.11
50 | TCACAGACTTGGGTTCTAACCTGTTGCCG (site TCACAGACTCG) | 1.2
51 | TCACGGTCTTGGGTTCTAACCTGTTGCCT (site TCACGGTCTAG) | 0.598
52 | TCACGGTCTTGGGTTCTAACCTGTTGCCT (site TCTCGGTCTAG) | 0.0701
53 | TCACGTCCTTGGGTTCTAACCTGTTGCAT (site TCACGTCCTAA) | 0.0411
54 | TCACGTCCTTGGGTTCTAACCTGTTGCAT (site TCACGTCCTAC) | 0.187
55 | TCACGTCCTTGGGTTCTAACCTGTTGCAT (site TCACGTCCTAG) | 0.745
56 | TCACGTCCTTGGGTTCTAACCTGTTGCAT (site TCACGTCCTAT) | 0.576
57 | TCACGTCCTTGGGTTCTAACCTGTTGCCT (site TCACGTCCTAA) | 0.403
58 | TCACGTCCTTGGGTTCTAACCTGTTGCCT (site TCACGTCCTAC) | 0.0778
59 | TCACGTCCTTGGGTTCTAACCTGTTGCCT (site TCACGTCCTAG) | 0.456
60 | TCACGTCCTTGGGTTCTAACCTGTTGCCT (site TCACGTCCTAT) | 0.144
61 | TCACTAGCTTGGGTTCTAACCTGTTGCCT (site TCACTAGCTAG) | 0.0596
62 | TCACTAGCTTGGGTTCTAACCTGTTGCCT (site TTACGAGCTAG) | 0
63 | TCAGACCCTTGGGTTCTAACCTGTTGCCT (site TAAGACCCTAG) | 0.417
64 | TCAGACCCTTGGGTTCTAACCTGTTGCCT (site TCAGACCCTAG) | 2.31
65 | TCAGAGGCTTGGGTTCTAACCTGTTGCTG (site TCAGAGGCTCA) | 0.623
66 | TCAGAGGCTTGGGTTCTAACCTGTTGCTG (site TCCGAGGCTCA) | 0.118

Row | Sequence | recombinant barcode read abundance (log10)
67 | TCAGAGGCTTGGGTTCTAACCTGTTGCTG (site TCGGAGGCTCA) | 0.0529
68 | TCAGAGGCTTGGGTTCTAACCTGTTGCTG (site TCTGAGGCTCA) | 0.156
69 | TCAGATTCTTGGGTTCTAACCTGTTGCCT (site TCAAATTCTAG) | 0.0231
70 | TCAGATTCTTGGGTTCTAACCTGTTGCCT (site TCACATTCTAG) | 0.0298
71 | TCAGATTCTTGGGTTCTAACCTGTTGCCT (site TCAGATTCTAG) | 0.78
72 | TCAGATTCTTGGGTTCTAACCTGTTGCCT (site TCATATTCTAG) | 0.114
73 | TCAGGAGCTTGGGTTCTAACCTGTTGCGG (site TCAGGAGCTCC) | 2.07
74 | TCAGGAGCTTGGGTTCTAACCTGTTGCGG (site TCAGGAGCTCT) | 1.85
75 | TCAGGCCCTTGGGTTCTAACCTGTTGCCT (site TAAGGCCCTAA) | 0.0837
76 | TCAGGCCCTTGGGTTCTAACCTGTTGCCT (site TCAGGCCCTAG) | 0.702
77 | TCATGACCTTGGGTTCTAACCTGTTGCAT (site CTTAACACTCG) | 0.159
78 | TCATGACCTTGGGTTCTAACCTGTTGCAT (site TCATGACCTAT) | 1.29
79 | TCCAACACTTGGGTTCTAACCTGTTGCCG (site TCCAACACTCG) | 0.574
80 | TCCAACACTTGGGTTCTAACCTGTTGCCG (site TCCAATACTCG) | 0.24
81 | TCCAACCCTTGGGTTCTAACCTGTTGCCA (site GCCAACCCTTA) | 0.0929
82 | TCCAACCCTTGGGTTCTAACCTGTTGCCA (site TCCAACCCTTG) | 0.715
83 | TCCAAGGCTTGGGTTCTAACCTGTTGCCT (site TCAAAGGCTAG) | 0.0841
84 | TCCAAGGCTTGGGTTCTAACCTGTTGCCT (site TCCAAGGCTAG) | 0.107
85 | TCCAAGGCTTGGGTTCTAACCTGTTGCCT (site TCGAAGGCTAG) | 0.147
86 | TCCAAGGCTTGGGTTCTAACCTGTTGCCT (site TCTAAGGCTAG) | 1.48
